Assays:
[1] = Incubation buffer without cells, time 0 (Examples 5-9, 11, 12); format: in vitro ADME; conditions: no cells, 0 h
Description: (§1) A 100 ml culture of S. griseolus ATCC 11796 in sporulation broth and a 50 ml culture of S. lividans transformed with pCAO400 in YEME broth were prepared and incubated for 24 hours as described. At that time, the S. griseolus culture was split into two 50 ml aliquots into two separate flasks and 25 ml of fresh sporulation broth was added to each and 9 mg of […] was added to one of these cultures to induce cytochrome P450SU1 expression. Fresh YEME broth (25 ml) was added to the S. lividans culture. After an additional 6 hours growth at 30° C., the cells in each culture were harvested as described above, washed twice with MOPS (50 mM, pH 7.2) and recentrifuged. The cell pellets were resuspended in four cell volumes of MOPS (50 mM, pH 7.2) containing 0.2% glucose and about 100 μg/ml of 10004. These cell suspensions were incubated at 30° C. with shaking and aliqouts were taken at 2 and 5.5 hours. The supernatant of each aliquot was analyzed by HPLC and the concentrations of the sulfonylurea compound 10004 and its metabolite 10005 were determined.
(§2) S. lividans transformed respectively with pCAO200SU1-FeS-B#9, pCAO200SU#112and pCAO200 were cultured for 36 hours in 400 ml of YEME broth at 30° C. S. griseolus ATCC 11796 was similarly cultured in 400 ml of sporulation broth. Six hours before harvesting the cells, 150 ml of fresh YEME broth was added to the S. lividans cells, and the S. griseolus cells were split into two 200 ml cultures with 100 ml of fresh sporulation broth added to each. 10001 (36 mg) was added to one of the two S. griseolus cultures to induce cytochrome P450SU1. The cells were prepared as described above in Example 5 and the concentrations of the sulfonylurea compound 10006 and its metabolites 10007, 10008 or 10009 were determined.
S. lividans transformed with pCAO200SU2-FeS-A#11 and S. lividans transformed with pCAO200 were cultured for 36 hours in 400 ml of YEME broth at 30° C. S. griseolus PH2001 (mutant without SU1) was cultured in 400 ml of sporulation broth at 30° C. Nine hours before harvesting the cells, the S. griseolus PH2001 culture was divided into two 200 ml cultures. Both received 100 ml of fresh sporulation broth and one received 36 mg of 10001 to induce cytochrome P450SU2. The cells were prepared as described above in Example 6 and the concentrations of the sulfonylurea compound 10001 and its metabolites 10002 and 10003 were determined.

[2] = tested on: S. griseolus ATCC 11796 uninduced; experiment: Sulfonylurea metabolism by washed cell suspension (Examples 5-9); format: in vitro ADME, Streptomyces griseolus
Description: Herbicides and their metabolites are measured by HPLC as described by Romesser et al., BBRC 140: 650-659 (1986), herein incorporated by reference, except that 0.1% H3 PO4 is used in both solvents. Chromatographic identity and quantitation of the herbicides and their resulting metabolites is determined by comparing them chromatographically with authentic standard compounds. Identity of the resulting metabolites is also confirmed by UV spectroscopy.
as §1, §2

[3] = tested on: S. lividans pCAO200SU1-FeS-B#9; experiment: Sulfonylurea metabolism by washed cell suspension (Examples 6-9); format: in vitro ADME, Streptomyces lividans
[4] = tested on: S. lividans pCAO200SU1#12; experiment: as above; format: in vitro ADME, Streptomyces lividans
S. ambofaciens PH3834 = experiment: Metabolism of 10001 by strains transformed with pPAT108 (Example 14); format: in vitro ADME, Streptomyces ambofaciens; conditions: substrate 10001 120 ug/ml
Description: (§3) S. griseolus PH2003, S. griseus PH4001, S. ambofaciens PH4002, and S. lividans JI1326 were transformed with the plasmid pPAT108. The transformed S. griseolus strain, PH3826, was cultured for 24 hours in 150 mls of sporulation broth with 5 ug/ml thiostrepton. The transformed S. griseus strain, PH3832, and the transformed S. ambofaciens strain, PH3834, were cultured for 24 hours in 150 mls of trypticase soy broth with 5 ug/ml thiostrepton. The transformed S. lividans strain, PH3822, was similarly cultured in 150 mls of YEME broth with 5 ug/ml thiostrepton. Three hours before harvesting the cells, 50 mls of fresh medium of the same type with 5 ug/ml thiostrepton was added to each culture. The cells from each of the cultures were harvested by centrifugation, washed twice with 50 mMMOPS, pH7.2 and resuspended in five cell volumes of MOPS containing 0.2% glucose and 120 ug/ml of the sulfonylurea 10001. The cell suspensions were incubated at 30° C. with shaking and aliquots were removed at 0.5, 1, 2 and 4 hours. The supernatant of each aliquot was analyzed by HPLC and the concentration of the sulfonylurea compound 10001 and its metabolites 10002 and 10003 were determined.

S. griseus PH3817 = experiment: Metabolism of 10001 by strains transformed with pCS325 (Example 15); format: in vitro ADME, Streptomyces griseus; conditions: substrate 10001
Description: as §3
S. griseolus PH2003, S. griseus PH4001, S. ambofaciens PH4002, and S. lividans JI1326 were transformed with the plasmid pCS325. Cells of the transformed strains of S. griseolus PH3809, S. griseus PH3817, S. ambofaciens PH3818, and S. lividans PH3816, were grown and treated as described in Example 14, and the concentrations of the sulfonylurea compound 10001 and its metabolites 10002 and 10003 were determined.

Structure (SMILES) | concentration in supernatant ([1]; Example 8, substrate 10001) | concentration in supernatant ([1]; Example 11, substrate 10001) | concentration in supernatant ([2]; substrate 10001, 2 h) | concentration in supernatant ([2]; substrate 10001, 4 h) | concentration in supernatant ([2]; substrate 10001, 6 h) | concentration in supernatant ([3]; substrate 10001, 2 h) | concentration in supernatant ([3]; substrate 10001, 4 h) | concentration in supernatant ([3]; substrate 10001, 6 h) | concentration in supernatant ([4]; substrate 10001, 4 h) | concentration in supernatant ([4]; substrate 10001, 6 h) | concentration in supernatant (S. ambofaciens PH3834; 1.0 h) | concentration in supernatant (S. ambofaciens PH3834; 2.0 h) | concentration in supernatant (S. ambofaciens PH3834; 4.0 h) | concentration in supernatant (S. griseus PH3817; 0.5 h) | concentration in supernatant (S. griseus PH3817; 1.0 h) | concentration in supernatant (S. griseus PH3817; 2.0 h) | concentration in supernatant (S. griseus PH3817; 4.0 h) | concentration in supernatant ([4]; substrate 10001, 2 h) | concentration in supernatant (S. ambofaciens PH3834; 0.5 h) | further results
CCOC(=O)c1ccccc1S(=O)(=O)NC(=O)Nc1nc(Cl)cc(OC)n1 [compound 10001, N-[(4-chloro-6-methoxy-pyrimidin-2-yl)aminocarbonyl]-2-ethoxycarbonylbenzenesulfonamide] | 291 µM | 279 µM | 244 µM | 167 µM | 86 µM | 28 µM | 0 µM | 0 µM | 276 µM | 276 µM | 278 µM | 250 µM | 191 µM | 226 µM | 181 µM | 69 µM | 0 µM |  |  | 
CCOC(=O)c1ccccc1S(=O)(=O)NC(=O)Nc1nc(O)cc(Cl)n1 [compound 10002, N-[(4-chloro-6-hydroxy-pyrimidin-2-yl)aminocarbonyl]-2-ethoxycarbonylbenzenesulfonamide] |  |  |  |  |  | 105 µM | 116 µM | 112 µM | 4 µM | 6 µM | 11 µM | 27 µM | 64 µM | 37 µM | 73 µM | 167 µM | 220 µM | 2 µM | 6 µM | 
COc1cc(Cl)nc(NC(=O)NS(=O)(=O)c2ccccc2C(=O)O)n1 [compound 10003, N-[(4-chloro-6-methoxy-pyrimidin-2-yol)aminocarbonyl]-2-carboxybenzenesulfonamide] | 0 µM | 0 µM | 14 µM | 37 µM | 62 µM | 86 µM | 95 µM | 94 µM | 4 µM | 5 µM | 6 µM | 14 µM | 33 µM | 3 µM | 7 µM | 16 µM | 23 µM | 2 µM | 1 µM | 
COC(=O)c1ccccc1S(=O)(=O)NC(=O)Nc1nc(C)cc(C)n1 [compound 10010, N-[(4,6-dimethylpyrimidin-2-yl)aminocarbonyl]-2-methoxycarbonylbenzenesulfonamide] |  |  |  |  |  |  |  |  |  |  |  |  |  |  |  |  |  |  |  | concentration in supernatant ([1]; Example 7, substrate 10010): 87 µM; concentration in supernatant ([1]; Example 12, substrate 10010): 88 µM; concentration in supernatant ([2]; substrate 10010, 2 h): 70 µM; concentration in supernatant ([2]; substrate 10010, 4 h): 49 µM; concentration in supernatant ([2]; substrate 10010, 6 h): 37 µM; concentration in supernatant ([3]; substrate 10010, 2 h): 35 µM; concentration in supernatant ([3]; substrate 10010, 4 h): 11 µM; concentration in supernatant ([3]; substrate 10010, 6 h): 4 µM; concentration in supernatant ([4]; substrate 10010, 2 h): 90 µM; concentration in supernatant ([4]; substrate 10010, 4 h): 85 µM; concentration in supernatant ([4]; substrate 10010, 6 h): 80 µM

From US5349127A, “Expression of herbicide metabolizing cytochromes P450” (priority 1992, dated 1994)
